From patent publication US6693126B2, “Dihydroxyphenyl derivatives for hepatoprotection and treatment of liver diseases” (Choongwae Pharm. Co., Ltd., priority 2000, dated 2004)

What was measured:
[1] = tested on: Liver Injuries caused by D-galactosamine in Rats; assay: Inhibitory effect against liver injuries caused by D-galactosamine in rats; format: in vivo, Rats (SD, male); conditions: D-galactosamine i.p., serum 24 h
Excerpt: The hepatoprotective effect of the compound of formula (1) was also identified by D-galactosamine model(see, Koji Hase et al., Biol. Pharm. Bull., 20, 4, 381-385, 1997; Jun-ichi Nagakawa et al., J. Pharmacology and Experimental Therapeutics, 264, 1, 1992; Toxicology of the Liver, Raven Press, New York, 1985). The N-acyl galactosamine resulted from the excess administration of D-galactosamine acts as a substrate for UDP-galactosamine or UDP-N-acyl galactosamine. But, the inordinate synthesis of […] and UDP-hexosamine may inhibit the binding of UTP in the liver cells and biosynthsis of UDP-glucose and UDP-galactose, which finally causes the structural and functional changes of the liver cell membranes. Consequently, it results in sporadic necrosis and the increase of ALT and AST values in blood. Since the toxicity caused by D-galactosamine looks similar to the symptoms of viral hepatitis, D-galactosamine model is also used conventionally as a model for viral hepatitis.
(§1) The degree of liver damage in the experimental animals was determined by measuring ALT and AST values in blood(see, Biol. Pharm. Bull., 20, 4, 381-385, 1997; Toxicology and Applied Pharmacology, 95, 1-11, 1988), and the hepatoprotective activity was calculated based on the following formula(see, Planta Medica, 55, 127-132, 1989). At this time, the hepatoprotective activity can also be calculated based on the same formula by replacing ALT value with AST value. [formula]
The hepatoprotective effect of the compound of the present invention was identified according to a known procedure(see, Koji Hase et al., Biol. Pharm. Bull., 20, 4, 381-385, 1997), and the protocol may be described in brief as follows.
Rats(SD, male, 180˜200 g) as the test animal were allowed in a condition of temperature 22±1° C. and relative humidity 60±5%. Feed and water were provided with no restriction while light and darkness were changed at an interval of 12 hours.
The compound of the present invention was suspended in a solvent corn oil, and this suspension was administered in a dose of 2 ml/kg. Each group included 8 test animals, and the test compound was orally administered for once per animal. After 30 minutes from the administration of the test compound, D-galactosamine solution(concentration: 200 mg/ml) in physiological saline was intraperitoneally injected in a dose of 2 ml/kg. As the control compounds, silymarin and DDB were selected.
(§2) The test animals were provided with no feed and sufficient water for 24 hours from the administration of D-galactosamine. […] This blood was centrifuged to obtain sera. ALT and AST values in the sera were measured using blood chemistry analyzer(Vitalab, Selectra II, Merck). The statistical significance for the test result of each group was examined based on Student's t-test, and the result was recognized as having a statistical significance when its P value is less than 5%.

[2] = tested on: Liver Injuries caused by Thioacetamide in Mice; assay: Inhibitory effect against liver injuries caused by thioacetamide in mice; format: in vivo, Mice (ICR, male); conditions: thioacetamide i.p., serum 24 h
Excerpt: The hepatoprotective effect of the compound of formula (1) was also identified by thioacetamide model(see, Masuda Yasusuke and Nakayama Nobue, Biochemical Pharmacology, 31, 17, 2713-2725, 1982; Liu Jie et al., Acta Pharmacologica Sinica, 16, 2, 97-102, 1995; Story D. L. et al., J. Tox. Environ. Health, 11, 483-501, 1983; Gomez-Lechon M. J. et al., Xenobiotica, 18, 6, 725-735, 1988) which is frequently used as an experimental model for liver injuries. This model has been established based on the phenomena that thioacetamide activated by P-450 S-oxidation inordinately increases the influx of calcium ion(Ca^++) into the liver cells, which in turn activates calcium ion-dependent phospholipase, protease and endonuclease, changes the cell frame through the calcium ion, exhausts ATP, and consequently destroys the liver cells. Thioacetamide also damages ureogenesis pathway in liver, and the metabolite of thioacetamide inhibits the transfer of RNA and makes the liver cell membranes unstable. A series of these activities results in the destruction of the liver cells, which in turn causes the increase of ALT and AST values in blood and also causes histologically the centrilobular necrosis.
as §1
The hepatoprotective effect of the compound of the present invention was identified according to a known procedure(see, Landon, E. J. et al., Biochemical Pharmacology, 35, 4, 697-705, 1986), and the protocol may be described in brief as follows.
Mice(ICR, male, 27˜35 g) as the test animal were allowed in a condition of temperature 22±1° C. and relative humidity 60±5%. Feed and water were provided with no restriction while light and darkness were changed at an interval of 12 hours.
The compound of the present invention was suspended in a solvent corn oil, and this suspension was administered in a dose of 10 ml/kg. Each group included 8 test animals, and the test compound was orally administered once per animal. After 1 hour from the administration of the test compound, thioacetamide solution(concentration: 90 mg/ml) in physiological saline was intraperitoneally injected in a dose of 1 ml/kg. As the control compounds, silymarin and DDB were selected.
as §2, with “thioacetamide.” for “D-galactosamine.”

## O/N=C/c1ccc2c(c1)OCO2 [Compound 1]
[1]; dose 16.7 mg/kg p.o. once
  Inhibitory Effect against Liver Injuries (%) ALT: 5%
[1]; dose 50 mg/kg p.o. once
  Inhibitory Effect against Liver Injuries (%) ALT: 12%
[2]; dose 50 mg/kg p.o. once
  Inhibitory Effect against Liver Injuries (%) ALT: 99%

## COc1cc(/C=N/OCc2ccccn2)cc2c1OCO2 [Compound 13, 6-(2-((2-pyridyl)methoxy)-2-azavinyl)-4-methoxybenzo [d]1,3-dioxolane]
[1]; dose 5.6 mg/kg p.o. once
  Inhibitory Effect against Liver Injuries (%) ALT: 34%
[1]; dose 16.7 mg/kg p.o. once
  Inhibitory Effect against Liver Injuries (%) ALT: 35%
[1]; dose 50 mg/kg p.o. once
  Inhibitory Effect against Liver Injuries (%) ALT: 67%
[2]; dose 50 mg/kg p.o. once
  Inhibitory Effect against Liver Injuries (%) ALT: 91%

## c1csc(-c2ccc3c(c2)OCO3)n1 [Compound 21, 2-(benzo[3,4-d]1,3-dioxolan-5-yl)-1,3-thiazole]
[1]; dose 5.6 mg/kg p.o. once
  Inhibitory Effect against Liver Injuries (%) ALT: 27%
  Inhibitory Effect against Liver Injuries(%) AST: 29%
[1]; dose 16.7 mg/kg p.o. once
  Inhibitory Effect against Liver Injuries (%) ALT: 32%
  Inhibitory Effect against Liver Injuries(%) AST: 29%
[1]; dose 50 mg/kg p.o. once
  Inhibitory Effect against Liver Injuries (%) ALT: 56%
  Inhibitory Effect against Liver Injuries(%) AST: 46%
[2]; dose 16.7 mg/kg p.o. once
  Inhibitory Effect against Liver Injuries (%) ALT: 54%
  Inhibitory Effect against Liver Injuries(%) AST: 37%
[2]; dose 50 mg/kg p.o. once
  Inhibitory Effect against Liver Injuries (%) ALT: 98%
  Inhibitory Effect against Liver Injuries(%) AST: 98%

## CC(=O)SCC(=O)c1ccc2c(c1)OCO2 [Compound 28, 1-(benzo[3,4-d]1,3-dioxolan-5-yl)-2-acetylthioethan-1-one]
[1]; dose 5.6 mg/kg p.o. once
  Inhibitory Effect against Liver Injuries (%) ALT: 42%
  Inhibitory Effect against Liver Injuries(%) AST: 48%
[1]; dose 16.7 mg/kg p.o. once
  Inhibitory Effect against Liver Injuries (%) ALT: 51%
  Inhibitory Effect against Liver Injuries(%) AST: 55%
[1]; dose 50 mg/kg p.o. once
  Inhibitory Effect against Liver Injuries (%) ALT: 52%
  Inhibitory Effect against Liver Injuries(%) AST: 55%
[2]; dose 16.7 mg/kg p.o. once
  Inhibitory Effect against Liver Injuries (%) ALT: 76%
  Inhibitory Effect against Liver Injuries(%) AST: 89%
[2]; dose 50 mg/kg p.o. once
  Inhibitory Effect against Liver Injuries (%) ALT: 87%
  Inhibitory Effect against Liver Injuries(%) AST: 94%

## COC(=O)c1cc(OC)c2c(c1-c1c(C(=O)OC)cc(OC)c3c1OCO3)OCO2 [DDB, reference compound]
[1]; dose 50 mg/kg p.o. once
  Inhibitory Effect against Liver Injuries (%) ALT: 28%
  Inhibitory Effect against Liver Injuries(%) AST: 12%
[2]; dose 50 mg/kg p.o. once
  Inhibitory Effect against Liver Injuries (%) ALT: 21%
  Inhibitory Effect against Liver Injuries(%) AST: −4%
